According to patent publication US20070048782A1, “Methods for assessing and treating leukemia” (priority 2001, published 2007):

Legend:
[1] = system: blast cells in bone marrow; assay: Clinical response of AML patients treated with FTI (blast cells in bone marrow aspirates); type: in vivo; conditions: 600 mg twice daily over a 21 day period
From the text: The therapeutic agents referred to in this specification are FTIs. They take on a multitude of forms but share the essential inhibitory function of interfering with or lessening the farnesylation of proteins implicated in cancer and proliferative diseases. Preferably, the FTIs are those indicated for the treatment of leukemias such as AML. A patient who responds to an FTI is one in whom a reduction of more than 50% of blast cells is seen in bone marrow following treatment with the FTI.
Bone marrow aspirates were obtained from two patients diagnosed with AML who had been treated with FTI. These AML patients were administered 600 mg (B)-6-[amino(4-chlorophenyl)(1-methyl-1H-imidazol-5-yl)methyl]-4-(3-chlorophenyl)-1-methyl-2(1H)-quinolinone) twice daily over a 21 day period. Bone marrow aspirates were taken at baseline and once a week for the three weeks of treatment. […] Response was determined as a reduction of more than 50% of blast cells in bone marrow aspirates. The aspirates were diluted to 15 ml with PBS and Ficoll-density centrifuged. White blood cells were washed twice with PBS, resuspended in FBS with 10% DMSO and immediately frozen at −80° C. Cells were cryogenically preserved to maintain cell viability. Samples were thawed at 37° C. and 10× volume of RPMI with 20% FBS was added drop-wise over a period of 5 min. […] Cell viability was determined by Trypan Blue assay. […]

AML-193 cells = assay: Toxic dose assay, viable cell count by trypan blue exclusion at day seven; type: cell-based; conditions: seven days of treatment, duplicate runs, read-out: IC50 (dose at which the number of viable cells in the treated sample was 50% of that in the control at day seven)
Experimental: (§1) The AML-like cell lines HL-60 (promyelocytic) and U-937 (promonocytic) were obtained from the ATCC. AML-193 (monocytic) and THP-1 (monocytic) cells were obtained from the RW Johnson Pharmaceutical Research Center, San Diego. Cells were grown in Roswell Park Memorial Institute medium (RPMI) with 20% Fetal Bovine Serum (FBS). AML-193 was also supplemented with granulocyte-macrophage colony-stimulating factor (GM-CSF) (10 ng/ml), insulin (0.005 mg/ml), and transferrin (0.005 mg/ml).
(§2) The cells of Example 1 were inoculated into 6-well plates at an initial concentration of 1×10^5 cells/ml. (B)-6-[amino(4-chlorophenyl)(1-methyl-1H-imidazol-5-yl)methyl]-4-(3-chlorophenyl)-1-methyl-2(1H)-quinolinone) was added at concentrations ranging form 0.5 to 500 nM in 3 μl of DMSO directly to the culture medium. Control cells from Example 1 were grown in medium alone or in medium supplemented with vehicle (0.1% DMSO). Cell numbers were counted at days four and seven in a hemocytometer and cell viability was determined by trypan blue exclusion assay. The IC50 was defined as the dose at which the number of viable cells in the treated sample was 50% of that in the control at day seven. Calculations were made based on duplicate runs of the experiment. The IC50 of the four cell lines was calculated after seven days of treatment with the FTI.

THP-1 cells = assay: as above; type: cell-based; conditions: seven days of treatment, duplicate runs, read-out: IC50 (dose at which the number of viable cells in the treated sample was 50% of that in the control at day seven)
Experimental: as §1, §2

U-937 cells = assay: as above; type: cell-based; conditions: seven days of treatment, duplicate runs, read-out: IC50 (dose at which the number of viable cells in the treated sample was 50% of that in the control at day seven)
Experimental: as §1, §2

HL-60 cells = assay: as above; type: cell-based; conditions: seven days of treatment, duplicate runs, read-out: IC50 (dose at which the number of viable cells in the treated sample was 50% of that in the control at day seven)
Experimental: as §1, §2

[2] = system: AML-like cell lines (AML-193, HL-60, THP-1, U-937); assay: Time course assay with cDNA microarray gene expression profiling of treated AML-like cell lines; type: cell-based; conditions: 100 nM
Experimental: Duplicate cultures of the cells of Example 1 were inoculated into 6-well plates at an initial concentration of 1×10^5 cells/ml. (B)-6-[amino(4-chlorophenyl)(1-methyl-1H-imidazol-5-yl)methyl]-4-(3-chlorophenyl)-1-methyl-2(1H)-quinolinone) was supplemented at a concentration of 100 nM in 3 μl of DMSO directly to the culture medium. The concentration of 100 nM was chosen for the subsequent time course experiments to normalize the treatment protocol based, in part, on the results of Example 2. Duplicate control cultures were grown in medium containing 0.1% DMSO. Duplicate cultures were harvested daily for a total of six days. Cells were counted, assayed for viability, and total RNA isolated according to the manufacturer's protocol (Qiagen RNeasy). […] RNA was treated with DNase1 (Qiagen DNase1 kit) to remove any residual genomic DNA. Linear amplification of RNA was conducted according to the procedure described in U.S. Pat. No. 5,545,522 to Van Gelder et. al. Aliquots of 5 μg of aRNA were then prepared for hybridization to cDNA arrays. […]
The arrays contained 7452 cDNAs from the IMAGE consortium (Integrated Molecular Analysis of Genome and their Expression: Research Genetics, Huntsville, Ala.) and Incyte libraries. […] The fluorescence intensity for each spot was analyzed with AUTOGENE software (Biodiscovery, Los Angeles). […]

Cn1cncc1[C@@](N)(c1ccc(Cl)cc1)c1ccc2c(c1)c(-c1cccc(Cl)c1)cc(=O)n2C [(B)-6-[amino(4-chlorophenyl)(1-methyl-1H-imidazol-5-yl)methyl]-4-(3-chlorophenyl)-1-methyl-2(1H)-quinolinone)]
Response (reduction of more than 50% of blast cells in bone marrow aspirates) ([1]; AML patient one): responded
Response (reduction of more than 50% of blast cells in bone marrow aspirates) ([1]; AML patient two): did not respond
IC50 (AML-193 cells): 134 nM
IC50 (THP-1 cells): 19 nM
IC50 (U-937 cells): 44 nM
IC50 (HL-60 cells): 24 nM
Overall change in gene expression, treated versus control samples from the same day (scatter-plot correlation) [2]: no gross changes in gene expression
